In patent publication US7585859B2, “PDE4B inhibitors and uses therefor” (Plexxikon, Inc., priority 2004, dated 2009):

Each compound was assayed against T1, full-length human PDE4B2 isozyme (Homo sapiens, UniProt Q07343) (assay: PDE4 IC50 determination by Scintillation Proximity Assay, PDE4B2). Details: Table 1B, Formula I compounds; read-out: IC50 PDE4B2.
T1 construct: The full-length human PDE4B2 isozyme; His6 (N); TEV cleavage site (N); made in house; host or cells: baculovirus infected insect cells (unpurified lysate)
T1 sequence (Q07343 1-564 isoform Q07343-2): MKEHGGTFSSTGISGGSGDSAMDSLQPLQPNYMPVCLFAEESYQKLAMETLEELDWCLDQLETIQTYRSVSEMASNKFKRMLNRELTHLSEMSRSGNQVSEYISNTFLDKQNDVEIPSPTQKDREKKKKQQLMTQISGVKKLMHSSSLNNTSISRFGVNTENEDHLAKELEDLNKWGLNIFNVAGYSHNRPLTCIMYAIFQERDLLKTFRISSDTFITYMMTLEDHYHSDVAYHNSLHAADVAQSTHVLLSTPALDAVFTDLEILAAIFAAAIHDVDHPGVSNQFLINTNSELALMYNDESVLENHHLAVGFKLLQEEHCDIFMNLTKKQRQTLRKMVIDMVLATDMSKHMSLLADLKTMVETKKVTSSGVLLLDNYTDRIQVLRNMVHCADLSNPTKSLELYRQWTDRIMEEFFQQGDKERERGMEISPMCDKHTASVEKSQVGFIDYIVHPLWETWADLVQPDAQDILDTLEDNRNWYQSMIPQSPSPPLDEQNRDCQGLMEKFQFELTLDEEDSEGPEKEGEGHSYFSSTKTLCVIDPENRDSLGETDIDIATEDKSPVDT
Type: biochemical
Method in brief: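 Unpurified His6-TEV-tagged full-length human PDE4B2 from baculovirus-infected insect cell lysate (2.5 μl of 50% glycerol stock/ml) hydrolysed [3H]cAMP in 50 mM Tris pH 7.5, 8.3 mM MgCl, 1.7 mM EGTA, 0.01% BSA for 30 min at 30°. Stopped with SPA beads in 18 mM ZnSO4; [3H]AMP scintillation counted, IC50 by non-linear regression.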

Row | Compound | IC50
1 | N#Cc1c(Nc2ccccc2)sc(C(=O)C2CC2)c1N [Compound 1-28, 4-Amino-5-cyclopropanecarbonyl-2-phenylamino-thiophene-3-carbonitrile] | < 10 µM
2 | COc1ccc(C(=O)c2sc(Nc3ccccc3)c(C#N)c2N)cc1 [Compound 1-31] | < 10 µM
3 | CCOC(=O)c1c(NC2CCCC2)sc(C(=O)c2ccc(OC)cc2)c1N [Compound 1-191, 4-Amino-2-cyclopentylamino-5-(4-methoxy-benzoyl)-thiophene-3-carboxylic acid ethyl ester] | < 10 µM
4 | N#Cc1c(Nc2ccccc2)sc(C(=O)c2cc(-c3ccccc3)no2)c1N [Compound 1-192, 4-Amino-2-phenylamino-5-(3-phenyl-isoxazole-5-carbonyl)-thiophene-3-carbonitrile] | < 10 µM
5 | CC(C)Nc1sc(C(=O)c2cc(-c3ccccc3)no2)c(N)c1C#N [Compound 1-205, 4-Amino-2-isopropylamino-5-(3-phenyl-isoxazole-5-carbonyl)-thiophene-3-carbonitrile] | > 10 µM
6 | CC(C)Nc1sc(C(=O)c2cc(-c3ccc(Cl)cc3)no2)c(N)c1C#N [Compound 1-212, 4-Amino-5-[3-(4-chloro-phenyl)-isoxazole-5-carbonyl]-2-isopropylamino-thiophene-3-carbonitrile] | < 10 µM
7 | CC(C)CNc1sc(C(=O)c2cc(-c3ccccc3)no2)c(N)c1C(N)=O [Compound 1-236, 4-Amino-2-isobutylamino-5-(3-phenyl-isoxazole-5-carbonyl)-thiophene-3-carboxylic acid amide] | < 10 µM
8 | NC(=O)c1c(NC2CCCC2)sc(C(=O)c2cc(-c3ccccc3)no2)c1N [Compound 1-251, 4-Amino-2-cyclopentylamino-5-(3-phenyl-isoxazole-5-carbonyl)-thiophene-3-carboxylic acid amide] | < 10 µM

Same assay, conditions: first part of Table 2B (2-1 to 2-22); read-out: IC 50 vs. indicated assay PDE4B2

Row | Compound | IC50
9 | Nc1nc(Nc2ccccc2F)sc1C(=O)c1cc(-c2ccccc2)no1 [Compound 2-6, [4-Amino-2-(2-fluoro-phenylamino)-thiazol-5-yl]-(3-phenyl-isoxazol-5-yl)-methanone] | < 10 µM

Same assay, conditions: second part of Table 2B (2-23 to 2-103), column 4; column is PDE4B2 in first part; read-out: IC 50 vs. indicated assay h TNFα

Row | Compound | IC50
10 | Nc1nc(Nc2ccc(Cl)cc2)sc1C(=O)c1cccc(C(F)(F)F)c1 [Compound 2-23, [4-Amino-2-(4-chloro-phenylamino)-thiazol-5-yl]-(3-trifluoromethyl-phenyl)-methanone] | < 10 µM
11 | Nc1nc(NC2CCCC2)sc1C(=O)c1cccc(Cl)c1 [Compound 2-80, (4-Amino-2-cyclopentylamino-thiazol-5-yl)-(3-chloro-phenyl)-methanone] | < 10 µM
